Test results from ChEMBL document CHEMBL1154142, “Tyrosine derivatives isolated from Streptomyces sp. IFM 10937 in a screening program for TRAIL-resistance-overcoming activity” (2008).
Active and inactive are the calls of the source. The calls are words filed in the database; no cut-off is given here.

What was measured:
Assay type in all cases: functional
[1] = tested on: AGS; test: Anticancer activity against TRAIL-resistant human AGS cells assessed as cell viability at 17.5 uM after 24 hrs by fluorometric microculture cytotoxicity assay in presence of 100 ng/ml TRAIL
[2] = tested on: AGS; test: Anticancer activity against TRAIL-resistant human AGS cells assessed as cell viability at 37.5 uM after 24 hrs by fluorometric microculture cytotoxicity assay in presence of 100 ng/ml TRAIL
[3] = tested on: AGS; test: Anticancer activity against TRAIL-resistant human AGS cells assessed as cell viability at 75 uM after 24 hrs by fluorometric microculture cytotoxicity assay in presence of 100 ng/ml TRAIL
[4] = tested on: AGS; test: Anticancer activity against TRAIL-resistant human AGS cells assessed as cell viability at 150 uM after 24 hrs by fluorometric microculture cytotoxicity assay in presence of 100 ng/ml TRAIL

| SMILES | Activity [1] [%] | Activity [2] [%] | Activity [3] | Activity [4] |
| --- | --- | --- | --- | --- |
| O=c1cc(-c2ccc(O)c(O)c2)oc2cc(O)cc(O)c12 [LUTEOLIN] | 70 | – | – | – |
| CO[C@@H]1[C@@H](OC(N)=O)[C@@H](O)[C@H](Oc2ccc3c(O)c(NC(=O)c4ccc(O)c(CC=C(C)C)c4)c(=O)oc3c2C)OC1(C)C [NOVOBIOCIN] | – | 72 | 63% | – |
| CC(C)=CCc1cc(C[C@H](N)C(=O)O)ccc1O | – | – | inactive | inactive |
| CC(=O)N[C@@H](Cc1ccc(O)c(CC=C(C)C)c1)C(=O)O | – | – | 77% | 67% |
